Experimental data taken from ChEMBL document CHEMBL1141145, “A chiral benzoquinolizine-2-carboxylic acid arginine salt active against vancomycin-resistant Staphylococcus aureus” (J Med Chem, 2005).
In brackets after ≈: the same amount, converted by molar mass.

Experiments:
Mus musculus [1] = assay: Protection of mice infected with MRSA-32 cell suspension after s.c. administration of compound; type: functional; conditions: MRSA-32, sc
Mus musculus [2] = assay: Protection of mice infected with MRSA-32 cell suspension after oral administration of compound; type: functional; conditions: Mus musculus, MRSA-32, po; read-out: ED50
Staphylococcus aureus [3] = assay: Minimum inhibitory concentration against methicillin susceptible Staphylococcus aureus in the absence of esterase action; type: functional
Staphylococcus aureus [4] = assay: Mutant prevention concentration aganist methicillin resistant Staphylococcus aureus-5023 done for 48 hr at 37 degree C with compound; type: functional
Staphylococcus aureus [5] = assay: Frequency of resistance emergence for methicillin resistant Staphylococcus aureus-33; type: functional
Staphylococcus aureus [6] = assay: Minimum inhibitory concentration against Staphylococcus aureus gyrA/grlA double mutant; type: functional
[7] = molecular target: DNA topoisomerase 4 subunit A (Staphylococcus aureus, UniProt P0C1U9)
DNA topoisomerase 4 subunit A, sequence (P0C1U9 whole entry): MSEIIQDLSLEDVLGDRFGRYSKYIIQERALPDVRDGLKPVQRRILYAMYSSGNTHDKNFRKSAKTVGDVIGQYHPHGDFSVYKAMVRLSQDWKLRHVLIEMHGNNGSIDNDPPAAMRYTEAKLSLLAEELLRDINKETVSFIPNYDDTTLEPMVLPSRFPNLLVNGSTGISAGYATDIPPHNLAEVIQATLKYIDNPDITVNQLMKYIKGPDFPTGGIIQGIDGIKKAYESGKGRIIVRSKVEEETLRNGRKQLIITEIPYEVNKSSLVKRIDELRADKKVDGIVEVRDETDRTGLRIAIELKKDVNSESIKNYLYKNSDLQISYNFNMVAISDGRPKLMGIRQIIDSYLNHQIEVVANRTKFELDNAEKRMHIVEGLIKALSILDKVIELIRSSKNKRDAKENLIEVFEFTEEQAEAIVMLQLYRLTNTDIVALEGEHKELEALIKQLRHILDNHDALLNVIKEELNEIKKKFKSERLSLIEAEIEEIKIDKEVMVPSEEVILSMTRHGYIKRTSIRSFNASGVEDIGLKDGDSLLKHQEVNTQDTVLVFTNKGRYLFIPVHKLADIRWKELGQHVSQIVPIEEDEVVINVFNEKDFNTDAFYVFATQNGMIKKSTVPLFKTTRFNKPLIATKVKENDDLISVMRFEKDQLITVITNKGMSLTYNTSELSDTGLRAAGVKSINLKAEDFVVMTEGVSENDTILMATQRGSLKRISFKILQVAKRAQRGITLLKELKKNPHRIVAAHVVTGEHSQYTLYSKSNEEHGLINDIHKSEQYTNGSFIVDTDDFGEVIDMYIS

[8] = tested on: Staphylococcus saprophyticus; assay: Minimum inhibitory concentration against Staphylococcus saprophyticus ATCC 15305; type: functional
Streptococcus agalactiae = assay: Minimum inhibitory concentration against Streptococcus agalactiae ATCC 13813; type: functional
Staphylococcus aureus [9] = assay: Frequency of resistance emergence for methicillin resistant Staphylococcus aureus-5023; type: functional
Streptococcus sanguinis = assay: Minimum inhibitory concentration against Streptococcus sanguis ATCC 10556; type: functional
[10] = Half life in phase I clinical studies at a i.v. dose of 600 mg; type: ADME, organism-based; conditions: human, in vivo, iv
Staphylococcus aureus [11] = assay: microbe, parasite or virus in culture
[12] = tested on: Staphylococcus haemolyticus; assay: Minimum inhibitory concentration against Staphylococcus haemolyticus ATCC 29970; type: functional
Staphylococcus aureus [13] = assay: Minimum inhibitory concentration against vancomycin-resistant Staphylococcus aureus (Hershey); type: functional
Mus musculus [14] = assay: Efficacy against mice infected with Staphylococcus aureus ATCC 25923 upon s.c. administration; type: functional; conditions: sc
Staphylococcus aureus [15] = assay: Minimum inhibitory concentration against Staphylococcus aureus ISP 794 (wild type); type: functional
Pseudomonas aeruginosa = assay: microbe, parasite or virus in culture; conditions: ATCC 27853
Staphylococcus aureus [16] = assay: Mutant prevention concentration against methicillin resistant Staphylococcus aureus-32 done for 48 h at 37 degree C with compound; type: functional
Staphylococcus aureus [17] = assay: Minimum inhibitory concentration against Staphylococcus aureus grlA mutant; type: functional
Staphylococcus aureus [18] = assay: Minimum inhibitory concentration against Staphylococcus aureus ATCC 25923; type: functional
Mus musculus [19] = assay: Efficacy against mice infected with MRSA-33 upon s.c. administration; type: functional; conditions: sc
Staphylococcus aureus [20] = assay: Minimum inhibitory concentration against Vancomycin intermediate Staphylococcus aureus MU 50; type: functional
Streptococcus pyogenes = assay: Minimum inhibitory concentration against Streptococcus pyogenes ATCC 19615; type: functional
Enterococcus faecalis = assay: Minimum inhibitory concentration against Enterococcus faecalis ATCC 29212; type: functional
Staphylococcus aureus [21] = assay: Mutant prevention concentration aganist methicillin resistant Staphylococcus aureus-33 done for 48 hr at 37 degree C with compound; type: functional
[22] = Peak plasma concentration in phase I clinical studies at a i.v. dose of 600 mg; type: ADME, organism-based; design: dose 600 mg, route intravenous; conditions: human, iv
Streptococcus pneumoniae [23] = assay: microbe, parasite or virus in culture; conditions: ATCC 49619
Escherichia coli = assay: microbe, parasite or virus in culture; conditions: ATCC 25922
Staphylococcus aureus [24] = assay: Minimum inhibitory concentration against methicillin susceptible Staphylococcus aureus; type: functional; conditions: Staphylococcus aureus; read-out: MIC
Staphylococcus aureus [25] = assay: Frequency of resistance emergence for methicillin resistant Staphylococcus aureus-32; type: functional
Phocaeicola vulgatus = assay: Minimum inhibitory concentration against Bacteroides vulgatus ATCC 29327; type: functional
Staphylococcus aureus [26] = assay: Minimum inhibitory concentration against vancomycin intermediate Staphylococcus aureus MU 3; type: functional
DNA gyrase [27] = molecular target: T1, DNA gyrase (Staphylococcus aureus, UniProt P0A0K8+P20831)
T1 sequence (P0A0K8 whole entry): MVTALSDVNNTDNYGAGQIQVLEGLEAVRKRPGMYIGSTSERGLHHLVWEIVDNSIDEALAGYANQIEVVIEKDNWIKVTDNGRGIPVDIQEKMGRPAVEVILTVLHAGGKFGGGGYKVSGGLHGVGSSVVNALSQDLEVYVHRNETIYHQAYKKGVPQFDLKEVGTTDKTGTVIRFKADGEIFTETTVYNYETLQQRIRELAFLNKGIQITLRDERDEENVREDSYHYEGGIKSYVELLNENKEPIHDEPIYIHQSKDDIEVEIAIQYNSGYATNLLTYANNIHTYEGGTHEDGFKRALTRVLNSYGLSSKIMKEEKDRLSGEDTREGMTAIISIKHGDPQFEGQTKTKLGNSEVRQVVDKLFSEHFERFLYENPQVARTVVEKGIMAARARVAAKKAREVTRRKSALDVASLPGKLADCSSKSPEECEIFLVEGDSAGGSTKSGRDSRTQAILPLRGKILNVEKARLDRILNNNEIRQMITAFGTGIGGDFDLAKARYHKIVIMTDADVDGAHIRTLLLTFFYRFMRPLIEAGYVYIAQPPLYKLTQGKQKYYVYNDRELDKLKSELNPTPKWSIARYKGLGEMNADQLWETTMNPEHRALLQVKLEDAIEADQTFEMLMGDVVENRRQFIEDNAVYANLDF
T1 sequence (P20831 whole entry): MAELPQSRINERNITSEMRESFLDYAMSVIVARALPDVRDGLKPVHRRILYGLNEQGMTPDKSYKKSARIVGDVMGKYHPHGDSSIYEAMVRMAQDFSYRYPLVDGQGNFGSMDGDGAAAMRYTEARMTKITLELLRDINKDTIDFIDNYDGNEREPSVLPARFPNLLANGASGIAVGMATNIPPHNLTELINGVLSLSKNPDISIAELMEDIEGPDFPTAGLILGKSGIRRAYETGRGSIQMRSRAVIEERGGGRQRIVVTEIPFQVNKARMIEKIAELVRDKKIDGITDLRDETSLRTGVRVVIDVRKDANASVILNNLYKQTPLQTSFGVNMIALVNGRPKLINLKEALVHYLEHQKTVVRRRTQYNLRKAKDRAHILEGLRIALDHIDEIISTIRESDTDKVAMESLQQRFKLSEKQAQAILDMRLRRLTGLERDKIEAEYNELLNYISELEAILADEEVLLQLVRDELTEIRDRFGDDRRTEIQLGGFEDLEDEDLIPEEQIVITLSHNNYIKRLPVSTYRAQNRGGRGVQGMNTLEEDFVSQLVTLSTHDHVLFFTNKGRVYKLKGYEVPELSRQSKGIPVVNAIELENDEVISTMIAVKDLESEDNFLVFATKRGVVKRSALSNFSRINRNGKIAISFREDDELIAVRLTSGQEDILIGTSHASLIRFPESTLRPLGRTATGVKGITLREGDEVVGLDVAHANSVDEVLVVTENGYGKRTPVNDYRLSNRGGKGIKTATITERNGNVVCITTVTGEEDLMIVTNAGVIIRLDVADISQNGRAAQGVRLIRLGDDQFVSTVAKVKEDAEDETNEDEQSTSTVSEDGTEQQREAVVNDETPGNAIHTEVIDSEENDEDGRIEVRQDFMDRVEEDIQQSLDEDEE

Rattus norvegicus = assay: Amount of drug at which at 14 days of daily administration produced no venous blockage or phlebitis in rats; type: functional
Streptococcus pneumoniae [28] = assay: microbe, parasite or virus in culture; conditions: ATCC 6303
Klebsiella pneumoniae = assay: Minimum inhibitory concentration against Klebsiella pneumoniae ATCC 10031; type: functional
Staphylococcus aureus [29] = assay: microbe, parasite or virus in culture; remark: listed apart in the source
Staphylococcus aureus [30] = assay: Minimum inhibitory concentration against Staphylococcus aureus gyrA mutant; type: functional
Mus musculus [31] = assay: Efficacy against mice infected with MRSA-32 upon s.c. administration; type: functional; conditions: MRSA-32, sc
Staphylococcus aureus [32] = assay: microbe, parasite or virus in culture; remark: listed apart in the source
Staphylococcus aureus [33] = assay: microbe, parasite or virus in culture; remark: listed apart in the source
[34] = molecular target: T2, DNA gyrase (Staphylococcus aureus) (UniProt P0A0K8+P20831)
T2 sequence (P0A0K8 2-644 limits assumed): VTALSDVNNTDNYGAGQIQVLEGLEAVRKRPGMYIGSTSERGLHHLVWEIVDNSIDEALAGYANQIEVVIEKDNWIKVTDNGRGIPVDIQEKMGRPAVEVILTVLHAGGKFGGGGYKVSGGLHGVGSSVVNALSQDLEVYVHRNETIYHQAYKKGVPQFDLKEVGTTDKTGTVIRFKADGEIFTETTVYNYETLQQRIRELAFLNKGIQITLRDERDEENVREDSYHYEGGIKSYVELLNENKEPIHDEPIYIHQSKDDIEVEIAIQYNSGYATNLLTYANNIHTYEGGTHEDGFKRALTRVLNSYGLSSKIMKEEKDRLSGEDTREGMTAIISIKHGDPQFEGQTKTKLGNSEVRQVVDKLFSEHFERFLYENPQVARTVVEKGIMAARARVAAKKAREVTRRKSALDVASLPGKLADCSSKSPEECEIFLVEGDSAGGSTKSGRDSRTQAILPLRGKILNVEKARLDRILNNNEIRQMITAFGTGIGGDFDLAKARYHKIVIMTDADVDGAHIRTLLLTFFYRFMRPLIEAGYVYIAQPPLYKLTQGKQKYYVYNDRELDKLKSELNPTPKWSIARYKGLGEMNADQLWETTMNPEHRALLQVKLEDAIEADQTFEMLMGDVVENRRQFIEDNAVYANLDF
T2 sequence (P20831 whole entry partner): as the sequence (P20831 whole entry) above

[35] = molecular target: DNA topoisomerase 4 subunit A (Staphylococcus aureus) (UniProt P0C1U9)
DNA topoisomerase 4 subunit A (Staphylococcus aureus), sequence (P0C1U9 whole entry): as the sequence (P0C1U9 whole entry) above

Staphylococcus aureus [36] = assay: Minimum inhibitory concentration against vancomycin intermediate Staphylococcus aureus MU 50; type: functional
[37] = molecular target: T2, DNA gyrase (Staphylococcus aureus); remark: listed apart in the source
DNA gyrase [38] = molecular target: T1, DNA gyrase; remark: listed apart in the source

Row | Structure (SMILES) | ED50 (Mus musculus [2]) [mg/kg] | MPC (Staphylococcus aureus [4]) [µg/mL] | FRE (Staphylococcus aureus [5]) | MIC (Staphylococcus aureus [6]) [mg/L] | IC50 [7] [µM] | MIC [8] [mg/L] | MIC (Streptococcus agalactiae) [mg/L] | FRE (Staphylococcus aureus [9]) | MIC (Streptococcus sanguinis) [mg/L] | MIC (Staphylococcus aureus [11]) [mg/L] | MIC [12] [mg/L] | MIC (Staphylococcus aureus [13]) [mg/L] | ED50 (Mus musculus [14]) [mg/kg] | MIC (Staphylococcus aureus [15]) [mg/L] | MIC (Pseudomonas aeruginosa) [mg/L] | MPC (Staphylococcus aureus [16]) [µg/mL] | MIC (Staphylococcus aureus [17]) [mg/L] | MIC (Staphylococcus aureus [26]) [mg/L] | MIC (Staphylococcus aureus [29]) [mg/L] | MIC (Staphylococcus aureus [32]) [mg/L] | also measured
1 | C[C@H]1CCc2c(N3CCC(O)CC3)c(F)cc3c(=O)c(C(=O)O)cn1c23 [LEVONADIFLOXACIN] | 62.3 |  |  |  |  |  |  |  |  |  |  |  |  |  |  |  |  |  |  |  | ED50 (Mus musculus [1]): 24.8 mg/kg; MIC (Staphylococcus aureus [3]): 0.03 mg/L (≈ 0.0832 µM)
2 | C[C@H]1CCc2c(N3CCC(O)CC3)c(F)cc3c(=O)c(C(=O)O)cn1c23.N=C(N)NCCC[C@H](N)C(=O)O.O.O.O.O | 93.6 | 2 | <3.51e-09 | 1 | 8.24 | 0.06 | 0.12 | <4.1e-07 | 0.25 | 1 | 0.015 | 0.5 | 0.59 | 0.016 | 4 | 2 | 0.032 | 2 | 1 | 1 | half-life [10]: 6 h; MIC (Staphylococcus aureus [18]): 0.03 mg/L; ED50 (Mus musculus [19]): 38.3 mg/kg; MIC (Staphylococcus aureus [20]): 1 mg/L; MIC (Streptococcus pyogenes): 0.06 mg/L; MIC (Enterococcus faecalis): 0.25 mg/L; MPC (Staphylococcus aureus [21]): 2 µg/mL; Cmax [22]: 4 µg/mL; MIC (Streptococcus pneumoniae [23]): 0.12 mg/L; MIC (Escherichia coli): 0.12 mg/L; MIC (Staphylococcus aureus [24]): 0.03 mg/L; FRE (Staphylococcus aureus [25]): <6.51e-09; MIC (Phocaeicola vulgatus): 0.5 mg/L; IC50 (DNA gyrase [27]): 8.24 µM; NOEL (Rattus norvegicus): 250 mg/kg; MIC (Streptococcus pneumoniae [28]): 0.12 mg/L; MIC (Klebsiella pneumoniae): 0.008 mg/L; MIC (Staphylococcus aureus [30]): 0.032 mg/L; ED50 (Mus musculus [31]): 27.8 mg/kg
3 | COc1c(N2C[C@@H]3CCCN[C@@H]3C2)c(F)cc2c(=O)c(C(=O)O)cn(C3CC3)c12 [MOXIFLOXACIN] |  | 10 | 2.1e-06 |  |  | 0.25 (≈ 0.623 µM) | 0.12 (≈ 0.299 µM) | 3.1e-05 | 0.5 (≈ 1.25 µM) | 2 (≈ 4.98 µM) | 0.06 (≈ 0.149 µM) |  | 0.6 |  | 4 (≈ 9.96 µM) | 10 |  | 4 (≈ 9.96 µM) | 2 (≈ 4.98 µM) | 2 (≈ 4.98 µM) | MIC (Staphylococcus aureus [18]): 0.06 mg/L (≈ 0.149 µM); ED50 (Mus musculus [19]): 66.1 mg/kg; MIC (Streptococcus pyogenes): 0.25 mg/L (≈ 0.623 µM); MIC (Enterococcus faecalis): 0.25 mg/L (≈ 0.623 µM); MPC (Staphylococcus aureus [21]): 10 µg/mL; MIC (Staphylococcus aureus [33]): 4 mg/L (≈ 9.96 µM); FRE (Staphylococcus aureus [25]): 4.51e-05; MIC (Phocaeicola vulgatus): 0.5 mg/L (≈ 1.25 µM); MIC (Klebsiella pneumoniae): 0.008 mg/L (≈ 0.0199 µM); ED50 (Mus musculus [31]): 30 mg/kg
4 | C[C@H]1CCc2c(N3CCC(O)CC3)c(F)cc3c(=O)c(C(=O)O)cn1c23 |  |  |  |  |  |  |  |  |  |  |  |  |  |  |  |  |  |  |  |  | CC50 [34]: 5 mg/L (≈ 13.9 µM); CC50 [35]: 2.5 mg/L (≈ 6.94 µM)
5 | CCCCCCCCCC(=O)N[C@@H](Cc1c[nH]c2ccccc12)C(=O)N[C@H](CC(N)=O)C(=O)N[C@@H](CC(=O)O)C(=O)N[C@@H]1C(=O)NCC(=O)N[C@@H](CCCN)C(=O)N[C@@H](CC(=O)O)C(=O)N[C@H](C)C(=O)N[C@@H](CC(=O)O)C(=O)NCC(=O)N[C@H](CO)C(=O)N[C@@H]([C@H](C)CC(=O)O)C(=O)N[C@@H](CC(=O)c2ccccc2N)C(=O)O[C@@H]1C |  |  |  |  |  |  |  |  |  | 0.25 (≈ 0.154 µM) |  | 0.5 (≈ 0.309 µM) |  |  |  |  |  | 0.25 (≈ 0.154 µM) | 250 (≈ 154 µM) | 0.25 (≈ 0.154 µM) | MIC (Staphylococcus aureus [36]): 0.5 mg/L (≈ 0.309 µM)
6 | CC1CCc2c(N3CCC(O)CC3)c(F)cc3c(=O)c(C(=O)O)cn1c23 (stereo not drawn) [NADIFLOXACIN] |  |  |  | 32 (≈ 88.8 µM) | > 27.7 |  |  |  |  |  |  |  |  | 0.25 (≈ 0.694 µM) |  |  | 1 (≈ 2.77 µM) |  |  |  | pKa (physchem): 6.8; CC50 [37]: 25 mg/L (≈ 69.4 µM); IC50 (DNA gyrase [38]): 27.7 µM; MIC (Staphylococcus aureus [30]): 1 mg/L (≈ 2.77 µM); CC50 [35]: > 10 mg/L
